Measured values as given in patent publication US20250263408A1 (Uniquest Pty Ltd, priority 2022, published 2025).

Experiments:
[1] = system: Ba/F3-WT (wild type) cells; assay: Ba/F3 Proliferation Assay, Ba/F3-WT (wild type) cells with mIL-3 (Resazurin); format: cell-based; conditions: Mus musculus, BaF3, 48 h, Ba/F3-WT cells +mIL-3, 48-hour incubation
[2] = target: T1, Ba/F3-Syk cells (Homo sapiens, UniProt P43405); assay: Ba/F3 Proliferation Assay, Ba/F3-Syk cells (Resazurin); format: cell-based; conditions: 48-hour incubation
T1 construct: fused on or other part: Possible but unprinted fusion partner: TEL (ETV6), the usual partner for Ba/F3 lines transformed by Syk; Nothing on a partner is printed

[3] = target: T2, Syk (Homo sapiens, UniProt P43405); assay: Syk Biochemical Assay (ADP-Glo luminescence); conditions: ATP 40 μM final, 60 minutes, read-out: SYK Biochem IC50
T2 construct: purchased Promega

[4] = system: MDR1 (Pgp); assay: Permeability Assay, bi-directional flux in MDCKII-MDR1 cells; format: in vitro ADME, canine; conditions: dog; for Papp at 2 h, 10 PM: MDCK-MDR1, 2 hours at 37° C., concentration printed as 10 PM; for efflux ratio at 2 h, 10 PM: MDCK-MDR1, ratio >2 indicates the compound is effluxed, read-out: efflux ratio (PappB-A/PappA-B)
Protocol: The assay was performed using Charles River/Agilux default assay conditions and default acetonitrile extraction and bioanalytical conditions. The assay was performed using MDCKII-MDR1 (Pgp) cells (canine MDCK stably transfected with MDR1). Bi-directional (A-B and B-A) flux measurements were carried out in triplicate aliquots from duplicate wells. The compounds were incubated for 2 hours at 37° C. at a concentration of 10 PM. The efflux ratio is the ratio of PappB-A/PappA-B, and a ratio >2 indicates the compound is effluxed.

[5] = Brain Penetration Assays: Mouse Pharmacokinetics (plasma and brain levels after oral dose); format: in vivo; conditions: male, CD-1, mouse, mice, 1 hour post oral dose of 10 mg/kg; for concentration at 1 h: brain (free, unbound); for Kp at 1 h: brain / plasma (unbound), read-out: Kpu,u (ratio of unbound brain levels to unbound plasma levels)
Protocol: Male CD-1 mice (6-8 weeks of age, 3 animals per timepoint) were dosed via oral gavage (10 mL/kg) with compound (10 mg/kg, 0.5% methylcellulose in water). Blood samples were taken either non-terminal via saphenous vein or terminal via cardiac puncture and stored in 1.5 mL Eppendorf tubes containing 0.010 mL of 10% K2EDTA, mixed gently and placed in ice before centrifugation. Blood was centrifuged at 10,000 r.p.m. for 2 minutes, plasma harvested and stored at −80° C. Following blood collection at the terminal time points, animals were sacrificed with C02 and brains quickly removed, rinsed with cold saline (0.9% NaCl), surface vasculature ruptured, blotted with dry gauze or tissue and weighed. The whole brain was homogenized in 1.0 mL ice cold phosphate-buffered saline, pH 7.4 and the homogenates stored at −80° C. Compound concentrations were quantified in plasma and brain tissue by LC-MS/MS using a partially validated bioanalytical method.
(§1) The Rapid Equilibrium Dialysis (RED) method was employed with plasma (200 μL, BioIVT, USA) in phosphate buffered saline (PBS, 350 μL) incubated with compound (1 μM) at 37° C. for 5 hours shaking at 450 r.p.m. Acetonitrile (3 volumes) was added and the sample centrifuged for 5 minutes and 1050 r.p.m. then for 15 minutes at 4000 r.p.m. Compound concentrations were quantified via LC-MS/MS from supernatant and free drug was calculated.
as §1, with “RED” for “Rapid Equilibrium Dialysis (RED)”, “mouse brain homogenate (10% w/v prepared in-house))” for “plasma (200 μL, BioIVT, USA) in phosphate buffered saline (PBS, 350 μL)”, “14” for “15”

| EC50 [1] [nM] | EC50 [2] [nM] | IC50 [3] [nM] | Papp at 2 h, 10 PM [4] [×10⁻⁶ cm/s] | efflux ratio at 2 h, 10 PM [4] | concentration at 1 h [5] [nM] | Kp at 1 h [5] | SMILES |
| --- | --- | --- | --- | --- | --- | --- | --- |
| 2660 | 78.2 | 48.1 | 15 to 20 | ≤ 1 |  | 0.1 to 0.2 | Cn1ccc(-c2cc(OC[C@@H]3CNCCO3)c3cccnc3c2)c1 [Compound 3.1, 7-(1-methyl-1H-pyrrol-3-yl)-5{-[(2S)-morpholin-2-yl]methoxy}quinoline] |
| 2120 | 23.3 | 10.6 | 15 to 20 | 1 to 2 | ≤ 25 | 0.05 to 0.1 | CC(C)n1cc(-c2cc(OC[C@@H]3CNCC(C)(C)O3)c3cccnc3c2)cn1 [Compound 3.6, 5-{[(2S)-6,6-dimethylmorpholin-2-yl]methoxy}-7-[1-(propan-2-yl)-1H-pyrazol-4-yl]quinoline] |
| 4610 | 53.2 | 35 |  |  | > 25 | 0.2 to 0.3 | Cn1ccc(-c2cc(OC[C@@H]3CNCC(C)(C)O3)c3cccnc3c2)c1 [Compound 3.10, 5-{[(2S)-6,6-dimethylmorpholin-2-yl]methoxy}-7-(1-methyl-1H-pyrrol-3-yl)quinoline] |
| 2550 | 35.6 | 16 | > 20 | 1 to 2 |  | 0.1 to 0.2 | CC(C)n1ccc(-c2cc3ncccc3c(OC[C@@H]3CNCCO3)n2)c1 [Compound 6.2, 5-{[(2S)-morpholin-2-yl]methoxy}-7-[1-(propan-2-yl)-1H-pyrrol-3-yl]-1,6-naphthyridine] |
| 3300 | 11.4 | 14.1 | 15 to 20 | ≤ 1 |  | 0.1 to 0.2 | CC(C)n1ccc(-c2cc3ncccc3c(OC[C@@H]3CNCC(C)(C)O3)n2)c1 [Compound 6.9, 5-{[(2S)-6,6-dimethylmorpholin-2-yl]methoxy}-7-[1-(propan-2-yl)-1H-pyrrol-3-yl]-1,6-naphthyridine] |
| 5020 | 21.4 | 11.9 |  |  | > 25 | 0.1 to 0.2 | CCn1ccc(-c2cc3ncccc3c(OC[C@@H]3CNCC(C)(C)O3)n2)c1 [Compound 6.19, 5-{[(2S)-6,6-dimethylmorpholin-2-yl]methoxy}-7-(1-ethyl-1H-pyrrol-3-yl)-1,6-naphthyridine] |
| > 10000 | 21.4 | 32.1 |  |  | ≤ 10 | 0.1 to 0.2 | CCn1ccc(-c2cc3ncccc3c(OC[C@@H]3CNCCCO3)n2)c1 [Compound 6.26, 7-(1-ethyl-1H-pyrrol-3-yl)-5-{[(2S)-1,4-oxazepan-2-yl]methoxy}-1,6-naphthyridine] |
| 2680 | 15 | 41.8 |  |  | ≤ 10 | 0.2 to 0.3 | CC(C)n1ccc(-c2cc3ncccc3c(O[C@H](C)[C@@H]3CNCCO3)n2)c1 [Compound 6.28, 5-[(1R)-1-[(2S)-morpholin-2-yl]ethoxy]-7-[1-(propan-2-yl)-1H-pyrrol-3-yl]-1,6-naphthyridine] |
| 1700 | 14.4 | 9.7 |  |  | ≤ 10 | 0.2 to 0.3 | CC1(C)CNC[C@@H](COc2cc(-c3ccn(C4COC4)c3)cc3ncccc23)O1 [Compound 7.11, 5-{[(2S)-6,6-dimethylmorpholin-2-yl]methoxy}-7-[1-(oxetan-3-yl)-1H-pyrrol-3-yl]quinoline] |

Continued, compound first:

| SMILES | EC50 [1] [nM] | EC50 [2] [nM] | IC50 [3] [nM] | Papp at 2 h, 10 PM [4] [×10⁻⁶ cm/s] | efflux ratio at 2 h, 10 PM [4] | concentration at 1 h [5] [nM] | Kp at 1 h [5] |
| --- | --- | --- | --- | --- | --- | --- | --- |
| Cn1ccc(-c2cc3ncccc3c(OC[C@@H]3CNCCO3)n2)c1 [Compound 2.20, 7-(1-methyl-1H-pyrrol-3-yl)-5-{[(2S)-morpholin-2-yl]methoxy}-1,6-naphthyridine] | 4170 | 87.5 | 37.8 | > 20 | ≤ 1 | > 25 | 0.2 to 0.3 |
| CC1(C)CNC[C@@H](COc2nc(-c3cnn(C(C)(C)C)c3)cc3ncccc23)O1 [Compound 2.42, 7-(1-tert-butyl-1-pyrazol-4-yl)-5-{[(2S)-6,6-dimethylmorpholin-2-yl]methoxy}-1,6-naphthyridine] | 2340 | 12.5 | 12.2 | > 20 | ≤ 1 | > 25 | 0.1 to 0.2 |
| C[C@@H](Oc1nc(-c2ccn(C)c2)cc2ncccc12)[C@@H]1CNCCO1 [Compound 2.44, 7-(1-methyl-1H-pyrrol-3-yl)-5-[(1R)-1-[(2S)-morpholin-2-yl]ethoxy]-1,6-naphthyridine] | 2110 | 53.1 | 31 |  |  | ≤ 10 | > 0.3 |
| Cn1ccc(-c2cc3ncccc3c(OC[C@@H]3CNCC(C)(C)O3)n2)c1 [Compound 2.51, 5-{[(2S)-6,6-dimethylmorpholin-2-yl]methoxy}-7-(1-methyl-1H-pyrrol-3-yl)-1,6-naphthyridine] | 6070 | 45.5 | 8.1 |  |  | ≤ 25 | > 0.3 |
| Cn1cc(-c2cc3ncccc3c(OC[C@@H]3CNCC4(CCC4)O3)n2)cn1 [Compound 2.55, 7-(1-methyl-1H-pyrazol-4-yl)-5-{[(6S)-5-oxa-8-azaspiro[3.5]nonan-6-yl]methoxy}-1,6-naphthyridine] | 3270 | 43.8 | 29.7 |  |  | > 25 | 0.05 to 0.1 |
| CC(C)n1cc(-c2cc3ncccc3c(O[C@H](C)[C@@H]3CNCCO3)n2)cn1 [Compound 2.66, 5-[(1R)-1-[(2S)-morpholin-2-yl]ethoxy]-7-[1-(propan-2-yl)-1H-pyrazol-4-yl]-1,6-naphthyridine] | 1020 | 14.5 |  |  |  | ≤ 25 | 0.05 to 0.1 |
| C[C@@H](Oc1nc(-c2cnn(C(C)(C)C)c2)cc2ncccc12)[C@@H]1CNCCO1 [Compound 2.67, 7-(1-tert-butyl-1H-pyrazol-4-yl)-5-[(1R)-1-[(2S)-morpholin-2-yl]ethoxy]-1,6-naphthyridine] | 1860 | 18.6 | 29.5 |  |  | ≤ 25 | 0.1 to 0.2 |
